{"source": "BindingDB's records for doi:10.1021/jm00145a024", "about": "(1985)", "experiment": "Inhibitory binding constant in guinea pig brain homogenate was reported at Opioid receptor delta 1 at a temperature 25 degree Celsius labeled with [3H](D-Ala2-D-Leu5)-enkephalin (0.7 nM)", "data": [{"smiles": "O=C1c2ccc(O)c3c2C24CCN(CC5CC5)C1[C@]2(O)CCC(=O)[C@@H]4O3", "note": "(stereo partly specified)", "values": [{"measurement": "Ki", "result": 281, "unit": "nM"}]}]}
